Source: patent EP0403158A2, “Imidazolyl-alkenoic acids” (SMITHKLINE BEECHAM CORPORATION, priority 1989, dated 1990)

Key:
[1] = system: mean arterial pressure in conscious rats made renin dependent hypertensive; assay: Antihypertensive activity in renal artery ligated (renin dependent hypertensive) conscious rats; format: in vivo; conditions: Rattus norvegicus, iv, seven to eight days following ligation, read-out: IC30 (dose of compound needed to reduce mean arterial pressure by 30 mm Hg)
Description: (§1) Angiotensin II antagonist activity of the compounds of Formulas (I) and (IA) is assessed by in vitro and in vivo methods. In vitro antagonist activity is determined by the ability of the compounds to compete with ¹²⁵I-angiotensin II for binding to vascular angiotensin II receptors and by their ability to antagonize the contractile response to angiotensin II in the isolated rabbit aorta. In vivo activity is evaluated by the efficacy of the compounds to inhibit the pressor response to exogenous angiotensin II in conscious rats and to lower blood pressure in a rat model of renin dependent hypertension.
The antihypertensive activity of the compounds is measured by their ability to reduce mean arterial pressure in conscious rats made renin dependent hypertensive by ligation of the left renal artery (Cangiano et al., J. Pharmacol. Exp. Ther. 208:310, 1979). Renal artery ligated rats are prepared with indwelling catheters as described above. Seven to eight days following renal artery ligation, the time at which plasma renin levels are highest, the conscious rats are placed in restrainers and mean arterial pressure is continuously recorded prior to and following the administration of the compounds intravenously or orally. The dose of compound needed to reduce mean arterial pressure by 30 mm Hg (IC₃₀) is used as an estimate of potency. […]

[2] = system: pressor response to exogenous angiotensin II; assay: Inhibition of pressor response to angiotensin II in conscious rats; format: in vivo; conditions: Rattus norvegicus, i.v., change in mean arterial pressure after intravenous 250 mg/kg angiotensin II, read-out: IC50 (dose of compound needed to produce 50% inhibition of the control response to angiotensin II)
Description: as §1
Rats are prepared with indwelling femoral arterial and venous catheters and a stomach tube (Gellai et al., Kidney Int. 15:419, 1979). Two to three days following surgery the rats are placed in a restrainer and blood pressure is continuously monitored from the arterial catheter with a pressure transducer and recorded on a polygraph. The change in mean arterial pressure in response to intravenous injections of […] angiotensin II is compared at various time points prior to and following the administration of the compounds intravenously or orally at doses of 3 to 300 mg/kg. The dose of compound needed to produce 50% inhibition of the control response to angiotensin II (IC₅₀) is used to estimate the potency of the compounds. […]

## CCCCc1ncc(/C=C(\Cc2ccccc2)C(=O)O)n1Cc1ccccc1Cl [(E)-3-[2-n-butyl-1-{(2-chlorophenyl)methyl}-1H-imidazol-5-yl]-2-benzyl-2-propenoic acid]
[1]
  ED (30 mm Hg): 10 mg/kg
[2]
  ED50: 14 mg/kg
